Measured values from article PMC8951040, “Determination of Flavonoids in Selected Scleranthus Species and Their Anti-Collagenase and Antioxidant Potential” (Molecules, 2022).
Several values for one entry are separate records, joined by “and”; a condition that tells them apart may be missing. Equal values may be shown once.

Legend:
[1] = biological target: collagenase from Clostridium histolyticum; assay: Anti-collagenase assay (FALGPA substrate); assay type: biochemical; conditions: 20 min at 37 °C, absorbance 335 nm, mean ± SD, triplicate
Experimental: The potential anti-collagenase activity was assessed as previously described. In short, a solution including 25 µL of collagenase from Clostridium histolyticum, 25 µL of Tricine buffer, and 25 µL of various levels of the extracts (SP1–SP6, SA1–SA6) or compounds (6–9) were incubated at 37 °C. After 20 min, 75 µL of FALGPA was added. Then, absorbance was measured at 335 nm. The experiment was performed in 50 mM Tris buffer. The blank was evaluated using Tricine buffer, instead of sample, and the positive control was epigallocatechin gallate (EGCG). All measurements were conducted in triplicate and the IC50 for each sample was calculated. The percentage of collagenase inhibitory activity (CoInh) was calculated as follows:Enzyme inhibition activity (%) = [1 − (B/S)] × 100%, where B is the blank and S is the sample.

[2] = FRAP ferric reducing antioxidant power assay kit; conditions: 1 h at 37 °C, absorbance 594 nm; mean ± SD, triplicate
Experimental: The […] of the investigated substances toward ferrous ions was assessed using a ferric reducing antioxidant power assay kit. Briefly, 10 µL of each sample (SP1–SP6, SA1–SA6, 1–9) was mixed with 190 µL of supplied reaction mix (containing FRAP Assay Buffer, FeCl3 solution, and FRAP Probe). After 1 h of incubation at 37 °C, the absorbance was measured at 594 nm. A blank solution containing 10 µL of MeOH instead of extract/compound solution was used. For further calculations, the ferrous standard curve was evaluated. Values are given as mM Ferrous equivalents. All tests were performed in triplicate.

[3] = ABTS radical cation assay (antioxidant assay kit CS0790); conditions: 5 min incubation, absorbance 405 nm; mean ± SD, triplicate
Experimental: Suppression of the production of the radical cation was measured using an antioxidant assay kit (CS0790). In brief, 10 µL of the test sample, 20 µL of myoglobin working solution, and 150 µL of ABTS working solution (containing ABTS substrate solution and 3% hydrogen peroxide) were mixed into a clear, flat-bottom 96-well plate. After 5 min of incubation, 100 µL of stop solution was added and absorbance was measured at 405 nm. The antioxidant concentration of tested samples was calculated using the equation obtained through linear regression of the Trolox standard curve.

[4] = CUPRAC assay (antioxidant assay kit MAK334); conditions: 10 min incubation, absorbance 570 nm; mean ± SD, triplicate
Experimental: The reducing power of copper ions was evaluated using an antioxidant assay kit (MAK334). Briefly, 20 µL of sample and 100 µL of reaction mix were added into separate wells in a 96-well plate. After 10 min of incubation, the absorbance endpoint was measured at 570 nm. Total antioxidant capacity was determined using a standard curve evaluated for Trolox.

[5] = DPPH radical scavenging assay; conditions: 30 min incubation, absorbance 517 nm; mean ± SD, triplicate
Experimental: Individual test compounds and extracts in methanol (130 µL) were added to 70 µL of a solution of DPPH (2,2-diphenyl-1-picrylhydrazyl). After 30 min of incubation, the absorbance was evaluated at 517 nm. The determination was performed in triplicate and corrected to a blank sample (pure methanol). The radical scavenging activity of the tested samples was expressed as Trolox equivalents, calculated from the standard curve.

O=C(O[C@@H]1Cc2c(O)cc(O)cc2O[C@@H]1c1cc(O)c(O)c(O)c1)c1cc(O)c(O)c(O)c1 [EGCG, epigallocatechin gallate, reference compound]
IC50 [1]: 34.8 ± 0.53 µM

scleranthoside B [Compound 2]
FRAP (Fe2+ equivalents) [2]: 5.68 ± 0.68 mM Fe2+ equivalents
ABTS (radical scavenging activity, Trolox equivalents) [3]: 188.57 ± 1.86 µM Teq
CUPRAC (Trolox equivalents) [4]: 114.56 ± 2.04 µM Teq
DPPH (radical scavenging activity, Trolox equivalents) [5]: 198.43 ± 2.40 µM Teq

scleranthoside A [Compound 1]
ABTS (radical scavenging activity, Trolox equivalents) [3]: 765.16 ± 2.83 µM Teq
CUPRAC (Trolox equivalents) [4]: 581.32 µM Teq and 581.32 ± 3.61 µM Teq
DPPH (radical scavenging activity, Trolox equivalents) [5]: 405.15 ± 3.12 µM Teq

O=c1cc(-c2cccc(O)c2)oc2c(C3OC(CO)C(O)C(O)C3O)c(O)c(C3OC(CO)C(O)C(O)C3O)c(O)c12 [Compound 8, 5,7,3′-trihydroxyflavone-6-C-glucoside-8-C-β-D-glucoside]
IC50 [1]: 53.4 ± 0.88 µM
FRAP (Fe2+ equivalents) [2]: 5.16 ± 0.96 mM Fe2+ equivalents
ABTS (radical scavenging activity, Trolox equivalents) [3]: 369.24 ± 3.05 µM Teq
CUPRAC (Trolox equivalents) [4]: 27.15 ± 1.32 µM Teq
DPPH (radical scavenging activity, Trolox equivalents) [5]: 176.71 ± 0.97 µM Teq

scleranthoside D [Compound 4]
FRAP (Fe2+ equivalents) [2]: 2.65 ± 0.47 mM Fe2+ equivalents
ABTS (radical scavenging activity, Trolox equivalents) [3]: 302.05 ± 2.42 µM Teq
CUPRAC (Trolox equivalents) [4]: 44.22 ± 1.35 µM Teq
DPPH (radical scavenging activity, Trolox equivalents) [5]: 9.64 ± 0.82 µM Teq

COc1ccc(C(C)=O)c(O[C@@H]2O[C@H](CO[C@@H]3OC[C@](O)(CO)[C@H]3O)[C@@H](O)[C@H](O)[C@H]2O)c1 [Compound 5, Apiopaeonoside]
ABTS (radical scavenging activity, Trolox equivalents) [3]: 444.23 ± 0.47 µM Teq
CUPRAC (Trolox equivalents) [4]: 48.46 ± 1.75 µM Teq
DPPH (radical scavenging activity, Trolox equivalents) [5]: 61.96 ± 1.90 µM Teq

COc1cc(-c2cc(=O)c3c(O)cc(O)c(C4OCC(O)C(O)C4OC4OC(CO)C(OC(C)=O)C(O)C4O)c3o2)ccc1OC(C)=O [Compound 6, 5,7-dihydroxy-3′-methoxy-4′-acetoxyflavone-8-C-β-D-arabinopyranoside-2″-O-(4‴-acetoxy)-glucoside]
IC50 [1]: 39.6 ± 1.21 µM
melting point: 187 to 188 °C
ABTS (radical scavenging activity, Trolox equivalents) [3]: 169.27 ± 1.68 µM Teq
CUPRAC (Trolox equivalents) [4]: 18.57 µM Teq and 18.57 ± 0.76 µM Teq
DPPH (radical scavenging activity, Trolox equivalents) [5]: 6.69 ± 0.97 µM Teq

COc1cc(-c2cc(=O)c3c(O)c(C4OC(CO)C(O)C(O)C4O)c(O)c(C4OCC(O)C(O)C4O)c3o2)ccc1O [Compound 9, 5,7,4′-trihydroxy-3′-methoxyflavone-6-C-β-D-glucopyranoside-8-C-α-arabinopyranoside]
IC50 [1]: 71.1 ± 0.97 µM
FRAP (Fe2+ equivalents) [2]: 9.07 ± 0.45 mM Fe2+ equivalents
ABTS (radical scavenging activity, Trolox equivalents) [3]: 586.69 ± 2.91 µM Teq
CUPRAC (Trolox equivalents) [4]: 18.20 ± 0.76 µM Teq
DPPH (radical scavenging activity, Trolox equivalents) [5]: 407.05 ± 1.83 µM Teq

scleranthoside C [Compound 3]
ABTS (radical scavenging activity, Trolox equivalents) [3]: 198.57 ± 2.46 µM Teq
CUPRAC (Trolox equivalents) [4]: 67.30 µM Teq and 67.30 ± 1.30 µM Teq
DPPH (radical scavenging activity, Trolox equivalents) [5]: 7.11 ± 0.59 µM Teq

O=c1cc(-c2ccc(O)c(O)c2)oc2c(C3OC(CO)C(O)C(O)C3O)c(O)c(C3OCC(O)C(O)C3O)c(O)c12 [Compound 7, 5,7,3′,4′-tetrahydroxyflavone-6-C-xyloside-8-C-β-D-glucoside]
IC50 [1]: 73.9 ± 1.03 µM
ABTS (radical scavenging activity, Trolox equivalents) [3]: 796.61 ± 1.23 µM Teq
CUPRAC (Trolox equivalents) [4]: 116.16 µM Teq and 116.16 ± 0.76 µM Teq
DPPH (radical scavenging activity, Trolox equivalents) [5]: 409.16 ± 2.03 µM Teq
